For data set [1], the system named is HT-29. In words: Cytotoxic activity IC50, HT-29. The note with it: Homo sapiens, HT-29, read-out: CYTOTOXIC ACTIVITIY IC50 (μM) HT-29.
The next data set deals with P-388. Nature of the data set: Cytotoxic activity IC50, P-388. The conditions noted are these: Mus musculus, P388, read-out: CYTOTOXIC ACTIVITIY IC50 (μM) P-388.
Data set [2] relates to MEL-28. In words: Cytotoxic activity IC50, MEL-28. The conditions noted are these: Homo sapiens, SK-MEL-28, read-out: CYTOTOXIC ACTIVITIY IC50 (μM) MEL-28.
Data set [3] can be described thus: Cytotoxic activity IC50, CV-1. The note with it: African green monkey, CV-1 cells.
A further data set concerns A-549. Nature of the data set: Cytotoxic activity IC50, A-549. The conditions noted are these: Homo sapiens, A549, read-out: CYTOTOXIC ACTIVITIY IC50 (μM) A-549.
The test system of data set [4] is DU-145. Nature of the data set: Cytotoxic activity IC50, DU-145. The note with it: Homo sapiens, DU-145, read-out: CYTOTOXIC ACTIVITIY IC50 (μM) DU-145.
The conditions of data set [5]: background statement, no test described; cited from earlier work.
A further data set concerns PANC-1. In words: Cytotoxic activity (M) panel, Pancreas PANC-1. The conditions noted are these: Homo sapiens, PANC-1, read-out: CYTOTOXIC ACTIVITY (M) PANC-1.
In the next data set the test system is MX-1. Nature of the data set: Cytotoxic activity (M) panel, Breast MX-1. The conditions noted are these: Homo sapiens, MX1, read-out: CYTOTOXIC ACTIVITY (M) MX-1.
Data set [6] concerns NCI-H187.
The test system of a further data set is CHSA. Nature of the data set: Cytotoxic activity (M) panel, Chondrosarcoma CHSA. The note with it: read-out: CYTOTOXIC ACTIVITY (M) CHSA.
The test system of data set [7] is HT-29. In words: Cytotoxic activity (M) panel, Colon HT-29. The note with it: Homo sapiens, HT-29, read-out: CYTOTOXIC ACTIVITY (M) HT-29.
For a further data set, the system named is LNCAP. Nature of the data set: Cytotoxic activity (M) panel, Prostate LNCAP. The note with it: Homo sapiens, read-out: CYTOTOXIC ACTIVITY (M) LNCAP.
The test system of data set [8] is DU-145. In words: Cytotoxic activity (M) panel, Prostate DU-145. The conditions noted are these: Homo sapiens, DU-145, read-out: CYTOTOXIC ACTIVITY (M) DU-145.
Data set [9] concerns OSA-FH. Nature of the data set: Cytotoxic activity (M) panel, Osteosarcoma OSA-FH. The conditions noted are these: read-out: CYTOTOXIC ACTIVITY (M) OSA-FH.
A further data set relates to SK-HEP-1. In words: Cytotoxic activity (M) panel, Liver SK-HEP-1. The note with it: Homo sapiens, SK-HEP1, read-out: CYTOTOXIC ACTIVITY (M) SK-HEP-1.
The subject of data set [10] is 5637. In words: Cytotoxic activity (M) panel, Bladder 5637. The note with it: read-out: CYTOTOXIC ACTIVITY (M) 5637.
For the next data set, the system named is SW-694. Nature of the data set: Cytotoxic activity (M) panel, Fibrosarcoma SW-694. The conditions noted are these: read-out: CYTOTOXIC ACTIVITY (M) SW-694.
The test system of another data set is PC3. Nature of the data set: Cytotoxic activity (M) panel, Prostate PC3. The conditions noted are these: Homo sapiens, PC-3, read-out: CYTOTOXIC ACTIVITY (M) PC3.
Data set [11] concerns MEL-28. In words: Cytotoxic activity (M) panel, Melanoma Mel-28. The note with it: Homo sapiens, SK-MEL-28, read-out: CYTOTOXIC ACTIVITY (M) Mel-28.
Another data set has as its system 786-O. In words: Cytotoxic activity (M) panel, Renal 786-O. The conditions noted are these: Homo sapiens, 786-0, read-out: CYTOTOXIC ACTIVITY (M) 786-O.
A further data set has as its system FADU. In words: Cytotoxic activity (M) panel, Pharnynx FADU. The note with it: Homo sapiens, read-out: CYTOTOXIC ACTIVITY (M) FADU.
The subject of the next data set is Y-79. Nature of the data set: Cytotoxic activity (M) panel, Retinoblastoma Y-79. The conditions noted are these: Homo sapiens, Y79, read-out: CYTOTOXIC ACTIVITY (M) Y-79.
The test system of the next data set is SK-OV-3. Nature of the data set: Cytotoxic activity (M) panel, Ovary SK-OV-3. The conditions noted are these: Homo sapiens, SK-OV-3, read-out: CYTOTOXIC ACTIVITY (M) SK-OV-3.
Another data set deals with Hs746t. Nature of the data set: Cytotoxic activity (M) panel, Gastric Hs746t. The conditions noted are these: Homo sapiens, read-out: CYTOTOXIC ACTIVITY (M) Hs746t.
Data set [12] relates to OSA-FH.
Data set [13] has as its system NCI-H187. Nature of the data set: Cytotoxic activity (M) panel, SCL NCI-H187. The conditions noted are these: Homo sapiens, NCI-H187, read-out: CYTOTOXIC ACTIVITY (M) NCI-H187.
Data set [14] concerns 5637.
Data set [15] concerns Hut 78. In words: Cytotoxic activity (M) panel, Lymphoma Cutaneus T cell Hut 78. The note with it: Homo sapiens, HuT78, read-out: CYTOTOXIC ACTIVITY (M) Hut 78, leukemias & lymphomas, Lymphoma Cutaneus T cell, line Hut 78.
Data set [16] relates to HL60. Nature of the data set: cells. The note with it: Homo sapiens, HL-60, read-out: CYTOTOXIC ACTIVITY (M) HL60, leukemias & lymphomas, ALL Promyelocytic leukemia, line HL60.
The test system of another data set is K562. Nature of the data set: cells. The note with it: Homo sapiens, K562, read-out: CYTOTOXIC ACTIVITY (M) K562.
The subject of data set [17] is RAMOS.
Data set [18] deals with Molt 3.
The subject of data set [19] is H9. In words: cells. The note with it: Homo sapiens, H9, read-out: CYTOTOXIC ACTIVITY (M) H9, leukemias & lymphomas, Lymphoma T-cell, line H9.
A further data set concerns U-937. In words: Cytotoxic activity (M) panel, Lymphoma Histiocytic U-937. The conditions noted are these: Homo sapiens, U-937, read-out: CYTOTOXIC ACTIVITY (M) U-937.
Data set [20] relates to H9.
In data set [21] the test system is RAMOS. Nature of the data set: cells. The note with it: Homo sapiens, read-out: CYTOTOXIC ACTIVITY (M) RAMOS, leukemias & lymphomas, Lymphoma Burkitts B celll, line RAMOS.
Data set [22] relates to MC116. In words: Cytotoxic activity (M) panel, Lymphoma undifferentiated MC116. The conditions noted are these: Homo sapiens, MC116, read-out: CYTOTOXIC ACTIVITY (M) MC116, leukemias & lymphomas, Lymphoma undifferentiated, line MC116.
Data set [23] relates to Molt 3. Nature of the data set: Cytotoxic activity (M) panel, Acute lymphoblastic Molt 3. The conditions noted are these: Homo sapiens, MOLT-3, read-out: CYTOTOXIC ACTIVITY (M) Molt 3, leukemias & lymphomas, ALL Acute lymphoblastic, line Molt 3.
The subject of data set [24] is HL60. The note with it: human.
Data set [25] concerns MC116. The conditions noted are these: human.
Data set [26] deals with Hut 78. The conditions noted are these: human.

The values that follow come from patent US8012975B2, “Antitumoral analogs of ET-743” (Pharma Mar, S.A., priority 2000, dated 2011).

The structures appear in SMILES notation. Where two headings read alike, the source gives them in different places.

As to `COCOc1c(OC)c(C)cc2c1[C@@H]1C3Cc4c(OC(=O)C(F)(F)C(F)(F)C(F)(F)F)c(C)c5c(c4[C@H](CNC(=O)CCc4ccccc4)N3[C@@H](C#N)[C@H](C2)N1C)OCO5` (stereo partly drawn), the IC50 in the data set with HT-29 [1] is 0.5 µM; with P-388, 0.5 µM; in the data set with MEL-28 [2], 0.5 µM; in data set [3], 500 nM; in the data set on A-549, 0.5 µM; in the data set with DU-145 [4] it was 0.5 µM.

Consider `COC1=C(C)C(=O)C2=C(C1=O)[C@@H]1[C@@H]3Cc4c(OC(=O)CO)c(C)c(OC)c(O)c4[C@H](CNC(=O)C(C)=O)N3[C@@H](C#N)[C@H](C2)N1C` [Saframycin R], for which the toxicity entry in data set [5] is reported as “moderate toxicity”.

Consider `COc1c(C)cc2c(c1O)[C@@H]1C3Cc4c(OC(C)=O)c(C)c5c(c4[C@H](CNC(=O)/C=C/c4ccccc4)N3[C@@H](O)[C@H](C2)N1C)OCO5` (stereo partly drawn) [drawing 213], for which the IC50 is 1.29e-10 M in the data set with PANC-1; 2.38e-09 M in the data set with MX-1; 0.0778 pM with NCI-H187 [6]; 1.39e-09 M with CHSA; 2.12e-09 M with HT-29 [7]; 3.94e-11 M in the data set with LNCAP. For the same molecule, the IC50 in the data set on DU-145 [8] worked out at 2.22e-09 M; in the data set on OSA-FH [9], 1.09e-09 M; with SK-HEP-1, 3.15e-09 M; in the data set on 5637 [10] it was 1.91e-10 M; in the data set with SW-694 it was 1.39e-06 M; with PC3, 4.7e-09 M. In addition, the IC50 with MEL-28 [11] worked out at 2.18e-09 M; in the data set on 786-O, 1.72e-09 M; with FADU it was 3.71e-10 M; in the data set on Y-79, 8.85e-11 M; in the data set on SK-OV-3 it was 8.74e-09 M; in the data set with Hs746t it was 7.1e-11 M.

As to `COc1c(C)cc2c(c1O)[C@@H]1C3Cc4c(OC(C)=O)c(C)c5c(c4[C@H](CNC(=O)[C@H](C)NC(=O)Cc4ccccc4)N3[C@@H](O)[C@H](C2)N1C)OCO5` (stereo partly drawn) [drawing 216], the IC50 in the data set with PANC-1 amounted to 2.58e-09 M; in the data set on MX-1, 2.85e-06 M; in the data set with CHSA, 2.25e-09 M; in the data set on HT-29 [7], 1.2e-10 M; in the data set on SK-HEP-1, 9.03e-10 M; with 5637 [10], 7.85e-10 M. The IC50 amounted to 9.34e-09 M with PC3; 1.13e-09 M in the data set with MEL-28 [11]; 2.9e-09 M with 786-O; 3.77e-08 M in the data set with FADU; 1.31e-11 M in the data set with Y-79; 2.07e-12 M in the data set with NCI-H187 [13]. Moreover, the IC50 in the data set with Hs746t was 6.25e-09 M. The “CYTOTOXIC ACTIVITY (M) OSA-FH” value in the data set on OSA-FH [12] lay in the range of 1.35 to 08 M.

In the case of `COc1c(C)cc2c(c1O)[C@@H]1C3Cc4c(OC(C)=O)c(C)c5c(c4[C@H](CNC(=O)Cc4ccccc4)N3[C@@H](O)[C@H](C2)N1C)OCO5` (stereo partly drawn) [drawing 217], the IC50 with PANC-1 came out at 1.03e-08 M; in the data set with CHSA it was 1.09e-08 M; in the data set with OSA-FH [9], 9.5e-09 M; in the data set with SK-HEP-1 it was 9.5e-09 M; in the data set with MEL-28 [11] it was 4.48e-09 M; with 786-O, 1e-08 M. Also, the IC50 in the data set on FADU was determined as 1.14e-09 M; with Y-79, 7.78e-09 M; in the data set with Hs746t, 1.37e-07 M. Further, the “CYTOTOXIC ACTIVITY (M) 5637” value in the data set with 5637 [14] lay within 3.18 to 09 M.

As to `COc1c(C)cc2c(c1O)[C@@H]1C3Cc4c(OC(C)=O)c(C)c5c(c4[C@H](CNC(=O)CCc4ccccc4)N3[C@@H](O)[C@H](C2)N1C)OCO5` (stereo partly drawn) [drawing 221], the IC50 in the data set on Hut 78 [15] turned out to be 6.21e-11 M; with HL60 [16], 9.38e-09 M; in the data set with K562, 2.33e-07 M; in the data set with RAMOS [17] it was 0.000777 nM; in the data set with Molt 3 [18], 0.0155 pM; in the data set with H9 [19] it was 1.99e-11 M. The IC50 in the data set with U-937 was 3.06e-11 M.

On to `CCC(=O)N[C@@H](C)C(=O)NC[C@H]1c2c(c(OC(C)=O)c(C)c3c2OCO3)CC2[C@H]3c4c(cc(C)c(OC)c4O)C[C@@H]([C@H](O)N21)N3C` (stereo partly drawn) [drawing 232], for which, in the data set with H9 [20], the “CYTOTOXIC ACTIVITY (M) H9” value is 2.43 to 08 M. For the same molecule, the IC50 with HL60 [16] was found to be 7.36e-09 M; in the data set with K562, 1.18e-08 M; in the data set with RAMOS [21], 5.01e-09 M; in the data set with MC116 [22], 1.49e-09 M; with Molt 3 [23], 9.86e-10 M.

As to `COc1c(C)cc2c(c1O)[C@@H]1C3Cc4c(OC(C)=O)c(C)c5c(c4[C@H](COC(=O)/C=C/c4ccccc4)N3[C@@H](O)[C@H](C2)N1C)OCO5` (stereo partly drawn) [drawing 238], the IC50 with HL60 [24] was found to be 13.4 nM; with K562, 6.13e-08 M; in the data set on RAMOS [17] (human), 0.715 nM; with Molt 3 [18] (human) it was 2480 pM; with MC116 [25], 6.38 nM; with H9 [19], 1.91e-08 M. In the data set on Hut 78 [26], the IC50 was 7.31 nM.

In the case of `COc1c(C)cc2c(c1O)[C@@H]1C3Cc4c(OC(C)=O)c(C)c5c(c4[C@H](COC(=O)/C=C/c4ccccc4)N3[C@@H](O)[C@H](C2)N1C)OCO5` (stereo partly drawn) [drawing 239], the IC50 in the data set on H9 [20] (human) came out at 21.7 nM; in the data set on HL60 [24] it was 3.1 nM; in the data set with RAMOS [17] (human), 1.86 nM; in the data set with Molt 3 [18] (human), 86.9 pM; with MC116 [25], 0.0527 nM; in the data set on Hut 78 [26], 48.1 nM.
